Experimental data: ChEMBL document CHEMBL1136157, “Synthesis of 3a,4-dihydro-3H-[1]benzopyrano[4,3-c]isoxazoles, displaying combined 5-HT uptake inhibiting and alpha(2)-adrenoceptor antagonistic activities: a novel series of potential antidepressants” (Bioorg Med Chem Lett, 2003)

Molecular target: Sodium-dependent serotonin transporter (Homo sapiens) (UniProt P31645)
Assay: In vitro binding affinity towards human serotonin transporter

Chain of Sodium-dependent serotonin transporter (Homo sapiens) (P31645 whole entry, looked up): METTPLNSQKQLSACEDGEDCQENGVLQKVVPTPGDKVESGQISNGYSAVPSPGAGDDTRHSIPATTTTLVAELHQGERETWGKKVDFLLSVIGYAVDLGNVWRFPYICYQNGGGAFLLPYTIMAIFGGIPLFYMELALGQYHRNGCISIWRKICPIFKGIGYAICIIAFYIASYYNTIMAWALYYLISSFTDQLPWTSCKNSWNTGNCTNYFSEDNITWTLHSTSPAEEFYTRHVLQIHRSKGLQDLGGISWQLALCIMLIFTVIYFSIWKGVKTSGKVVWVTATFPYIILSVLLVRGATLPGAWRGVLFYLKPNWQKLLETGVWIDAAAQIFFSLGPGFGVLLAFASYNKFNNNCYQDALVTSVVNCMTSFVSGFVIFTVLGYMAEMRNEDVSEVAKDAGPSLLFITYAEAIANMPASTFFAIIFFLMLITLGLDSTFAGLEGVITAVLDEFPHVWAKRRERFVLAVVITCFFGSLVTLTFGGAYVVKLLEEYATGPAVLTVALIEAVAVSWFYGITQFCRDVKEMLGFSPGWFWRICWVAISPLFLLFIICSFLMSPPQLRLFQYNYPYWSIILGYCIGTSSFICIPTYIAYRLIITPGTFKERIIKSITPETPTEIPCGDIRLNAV

| SMILES | Ki [nM] |
| --- | --- |
| COc1cc2c(cc1OC)C1=NO[C@@H](CN3CCN(C/C=C(\C)c4ccccc4)CC3)[C@@H]1CO2 (stereo in doubt; (+)15g) | 4.5 |
| COc1cc2c(cc1OC)C1=NO[C@@H](CN3CCN(C/C=C/c4ccccc4)CC3)[C@@H]1CO2 (stereo in doubt; (+)5) | 1.2 |
| COc1cc2c(cc1OC)C1=NOC(CN3CCN(Cc4cnc5ccccc5c4)CC3)C1CO2 (centres undefined) | 14 |
| COc1cc2c(cc1OC)C1=NOC(CN3CCN(Cc4ccccc4)CC3)C1CO2 (centres undefined) | 158 |
| COc1ccc2c(c1)C1=NOC(CN3CCN(C/C=C/c4ccccc4)CC3)C1CO2 (centres undefined) | 14 |
| COc1cc2c(cc1OC)C1=NOC(CN3CCN(Cc4csc5ccccc45)CC3)C1CO2 (centres undefined) | 7.2 |
| COc1cc2c(cc1OC)C1=NOC(CN3CCN(C/C=C/c4ccccc4)CC3)C1CO2 (centres undefined) | 8.3 |
| COc1cc2c(cc1OC)C1=NOC(CN3CCN(Cc4cccc5ccccc45)CC3)C1CO2 (centres undefined) | 3.9 |
| COc1cc2c(cc1OC)C1=NOC(CN3CCN(Cc4cc5ccccc5s4)CC3)C1CO2 (centres undefined) | 5 |
| COc1ccc2c(c1)OCC1C2=NOC1CN1CCN(C/C=C/c2ccccc2)CC1 (centres undefined) | 19 |
| COc1cc2c(cc1OC)C1=NOC(CN3CCN(Cc4ccc5ncccc5c4)CC3)C1CO2 (centres undefined) | 8.1 |
| COc1cc2c(cc1OC)C1=NOC(CN3CCN(CCc4ccccc4)CC3)C1CO2 (centres undefined) | 199 |
| COc1cc2c(cc1OC)C1=NOC(CN3CCN(C/C=C(\C)c4ccccc4)CC3)C1CO2 (centres undefined) | 10 |
| COc1cc2c(cc1OC)C1=NO[C@@H](CN3CCN(C/C=C\c4ccccc4)CC3)[C@@H]1CO2 | 35 |
| COc1cc2c(cc1OC)C1=NOC(CN3CCN(CC4=Cc5ccccc5C4)CC3)C1CO2 (centres undefined) | 4.1 |
| COc1cc2c(cc1OC)C1=NO[C@@H](CN3CCN(C/C=C/c4ccccc4)CC3)[C@@H]1CO2 (stereo in doubt; (-)5) | 3.4 |
| COc1cc2c(cc1OC)C1=NOC(CN3CCN(CCC(=O)c4ccccc4)CC3)C1CO2 (centres undefined) | 123 |
| COc1cc2c(cc1OC)C1=NOC(CN3CCN(CCCc4ccccc4)CC3)C1CO2 (centres undefined) | 10 |
| COc1cc2c(cc1OC)C1=NO[C@@H](CN3CCN(C/C=C(\C)c4ccccc4)CC3)[C@@H]1CO2 (stereo in doubt; (-)15g) | 10 |
